From patent US20210144999A1, “COMPOSITIONS COMPRISING HYDROXYCINNAMIC ACID AND RELATED CONJUGATES, ANALOGUES AND DERIVATIVES, AND METHODS OF USE THEREOF” (YEDA RESEARCH AND DEVELOPMENT CO. LTD., priority 2017, published 2021)
Entries after “also recorded” stand apart in the source; their conditions may differ.

Experiments:
B. subtilis biofilms = assay: B. subtilis biofilm stability / maintenance in vitro; format: cell-based; settings: for effect on beneficial biofilms (stability / maintenance), single agent: in vitro, biofilms at day 1 and day 5
Description: Shown are biofilms of treated and untreated B. subtilis biofilms.
Strains and Media All experiments were performed with B. subtilis NCBI3610 and its derivatives. Assays were carried out with the biofilm-inducing medium, MSgg: 5 mM potassium phosphate, 100 mM MOPS (pH 7), 2 mM MgCl2, 50 μM MnCl2, 1 μM ZnCl2, 2 μM thiamine, 0.5% glycerol, 0.5% glutamate, 50 μg/ml tryptophan, 50 μg/mlphenylalanine 50 μg/ml threonine, 700 μM CaCl2, and 50 μM (for growth assays) or 125 μM (for biofilm assays) FeCl3^1. A solid MSgg medium was obtained by adding Bacto agar (Difco) to a final concentration of 1.5%. When necessary, selective medium was prepared with LB-agar or LB broth, supplemented with: 100 μg/ml ampicillin (amp) (AG Scientific), or 10 μg/ml kanamycin (kan) (AG Scientific), or 10 μg/ml chloramphenicol (cam) (Amresco), or 10 μg/ml tetracycline (tet) (Amresco), or 100 μg/ml spectinomycin (spec) (Tivan Biotech), or 1 μg/mlerythromycin (erm) (Amresco)+25 μg/ml lincomycin (linc) (Sigma Aldrich).

[1] = tested on: pseudomonas syringae pv. Tomato; assay: Tomato plant survival after pseudomonas syringae pv. Tomato infection (Example 9); format: in vivo, tomato plants; settings: 5 μM caffeic acid or 5 μM putrescine or 2.5 μM each; putrescine read 28 days after infection
Description: Bacillus strain B. subtilis 3610 (B.S) are maintained on LB plates. 1000 cells of B.S. with or without the addition of 5 μM of caffeic acid or 5 μM of putrescine, or 2.5 μM each of caffeic acid and putrescine are added to tomato plants grown on agrophonic beads. Plants are incubated at 28±2° C. for 15 days.

[2] = tested on: pks operon (PpksC promoter); assay: pks expression, PpksC-lux luminescence reporter; format: cell-based, B. subtilis; settings: library of 400 plant metabolites, growth-normalized RLU
Description: FIGS. 23A-23B: An ester of caffeic acid induces antibiotic production. (FIG. 23A) Scheme of a screen of plant metabolites for pks induction. (FIG. 23B) Growth-normalized RLU of PpksC-lux strain treated with a small molecule library representative as in A, compared with the treatment in root exudate.
(§1) pks expression analysis. pks expression in the presence of plant metabolites was analyzed as following: the luminescence intensity of cells harboring a PpksC-lux transcriptional promoter fusion was analyzed. Cells were grown to a mid-logarithmic phase, diluted 1:100 in 150 μl liquid MSgg medium, either with or without root exudate. Cells were grown in a 96-well microplate (Thermo Scientific, Roskilde, Denmark) with agitation at 30° C. for 16 h in a microplate reader (Synergy 2, BioTek, Winooski, Vt., USA) measuring luminescence intensity and the optical density at 600 nm (OD600) every 15 min.
A library of 400 plant metabolites was screened for pks induction using B. subtilis cells carrying the PpksC-lux construct (FIG. 23A).

[3] = tested on: B. subtilis 3610 biofilms; assay: Biofilm maintenance (% coverage) on tomato roots in planta; format: in vivo; settings: 1000 B. subtilis cells with or without materials, tomato plants on agrophonic beads
Description: (FIGS. 17A-17C) B. subtilis 3610 constantly expressing the fluorescent protein mKate2 was maintained on LB plates. 1000 cells either applied or non-applied with the materials indicated were added to tomato plants grown on agrophonic beads. % coverage was calculated based on quantifying 20 fields from the fluorescent microscope using Image J. Three replications were maintained for each assay. SD represents the average of three independent experiments.

[4] = tested on: pks operon (PKS promoter); assay: pks expression, amyE::Ppks-gfp fluorescence reporter; format: cell-based, B. subtilis
Description: FIGS. 3A:-3H Specialized host-derived metabolites increase PKS activity while B. subtilis biofilms increase plant Induced Systemic Resistance (ISR). (FIG. 3A) Quantification of pks expression (amyE::Ppks-gfp) in B. subtilis over time in response to different hydrophobicity fractions of plant root exudate. Expression was measured using fluorescent intensity of GFP fused to the PKS promoter. Color-coded curves indicate ascending methanol concentrations used for consecutive washings of root exudate from Silica-based bonded phase with strong hydrophobicity; darker curve indicates the first flow-through of the loaded root exudate from the silica cartridge. Orange curve indicate the pks expression kinetics without treatment. (FIG. 3B) Quantification of pks expression (amyE::Ppks-gfp) in B. subtilis over time in response to plant root metabolites. Expression was measured by fluorescent intensity of GFP fused to the PKS promotor. Color-coded curves indicate 5, 50,100 and 150 μM of the four metabolites: Methyl β-D-Glucopyranosid (upper left), Chromone (upper right), Chlorogenic acid (lower left) and Caffeic acid (lower right). Orange curve indicate the pks expression kinetics without treatment. (FIG. 3C) Fluorescence imaging of pks expression (amyE::Ppks-gfp) in a single cell resolution 5 h after B. subtilis was grown in MSgg (control) liquid culture supplemented with 150 μM of Chlorogenic acid and Caffeic acid. Images presented as over-layered channels of TL-phase and EGFP. Scale bar—[…]. […] Pathogenicity was measured in E. sativa seedlings whose roots were inoculated with B. subtilis, S. plymuthica and their combination in ratios of 1:1, 100:1 and 1:100. […]
Fluorescence microscopy. […] Cells were s visualized by fluorescence microscopy; Phase contrast and signal from Ppks-gfp (green) are shown. Fluorescent cell count and intensity levels were recorded for 10 fields in each treatment, at least 1000 cells were quantified for each treatment.

B. subtilis = assay: Planktonic growth (OD600) in liquid MSgg; format: cell-based; settings: caffeic acid at indicated concentrations, 30° C.
Description: Planktonic growth of wild type grown at 30° C. with shaking in liquid MSgg medium without (untreated) or caffeic acid at indicated concentrations was monitored by measuring OD600in a microplate reader. Results are averages of four wells within one experiment and their standard deviations. A representative of three independent experiments is shown.
as §1

Structure (SMILES): NCCCCN [putrescine]
- effect on beneficial biofilms (stability / maintenance), single agent (B. subtilis biofilms): little or no biological effect
- tomato plant survival after pseudomonas syringae pv. Tomato infection [1]: little or no biological effect on tomato plant survival

Structure (SMILES): O=C(/C=C/c1ccc(O)c(O)c1)O[C@@H]1C[C@](O)(C(=O)O)C[C@@H](O)[C@H]1O [chlorogenic acid]
- pks activation in screen of plant metabolites [2]: activatespks operon; also recorded: induced pks activation

Structure (SMILES): O=C(O)/C=C/c1ccc(O)c(O)c1 [caffeic acid]
- duration of increased stability of bacterial beneficial biofilms (B. subtilis biofilms; caffeic acid alone, 100 μM, laboratory conditions): up to 4 days
- effect on beneficial biofilms (stability / maintenance), single agent (B. subtilis biofilms): can promote biofilm maintenance
- tomato plant survival after pseudomonas syringae pv. Tomato infection [1]: increased tomato plant survival
- protective biofilms in planta on tomato roots (% coverage) [3]: sustained protective biofilms in planta on tomato roots
- protective biofilms in planta on tomato roots (% coverage) ([3]; listed as Caffeic acid): can promote biofilm maintenance
- number of cells expressing the pks operon ([4]; 150 μM, 5 h, single cell fluorescence): induced the number of cells expressing the pks operon
- average pks expression level ([4]; 150 μM, single cell fluorescence, versus control): comparable to the control
- pks (PKS) expression ([4]; B. subtilis amyE::Ppks-gfp, liquid MSgg, 5, 50, 100 and 150 μM): activatespks operon; also recorded: significantly enhanced PKS expression
- planktonic growth of B. subtilis (B. subtilis): no impact on planktonic growth; also recorded: little or no effect on the growth of B. subtilis

Structure (SMILES): O=c1ccc2cc(O)c(O)cc2o1 [aesculetin]
- pks activation in screen of plant metabolites [2]: activatespks operon; also recorded: induced pks activation
